Test results published in patent publication US7049321B2, “Methods and pharmaceutical compositions for treatment of central and peripheral nervous system disorders and compounds useful therefor” (Israel Institute for Biological Research, priority 2002, dated 2006).
“Also recorded” adds a separate entry of the source.

Tests used:
[1] = Ex vivo brain penetration in mice (GC and binding); details: for half-life: mice brain
[2] = test system: Primary mixed rat cortical neurons infected with recombinant Semliki Forest virus encoding human APP695 or APP C99 or C111; assay: Aβ levels in vitro in infected cortical neurons; assay type: cell-based
Experimental: The mechanism of Aβ modulation was tested using C99 (and C111) that are truncated constructs generated from APP. Unlike APP, C99/C111 are direct substrates for γ-secretase. With both constructs it is possible to directly assay for γ-secretase activity, while with APP this is not possible. Both constructs are—as compared to APP—inefficient substrates for α-secretase. Synergistc effects were also evaluated with CDX (methyl-β-cyclodextrin), an agent which extracts cholesterol from the plasma membrane. CDX inhibits also Aβ production. CDX-treated cells were treated in addition to the respective muscarinic agonist for 5 min to reduce the cholesterol content.

[3] = test system: cholesterol-fed rabbits; assay: Aβ immunoreactivity in cortex of hypercholesterolemic rabbits; assay type: in vivo, New Zealand white rabbits; details: 1 mg/kg, s.c., 10 weeks
[4] = test system: ApoE; assay: ApoE synthesis and secretion in primary type 1 astrocytes; assay type: cell-based, rat
Experimental: Primary cultures of type 1 astrocytes were derived from the cortex of Sprague Dawley rats. The compounds tested were dissolved in the culture media and added to cells for 24, 48, 72 and 96 hrs. Media was then removed and kept frozen until ApoE protein levels were evaluated by immunoblot analysis as described in Poirier et al Neuroscience 55: 81–90 (1993). Alternatively the methods of Cedazo-Minuez et al [Neurosci 105: 651–661, 2001} may be employed.

[5] = test system: Opiods/Opiate, Non-Selective; assay: Opiate non-selective binding; details: at 10^−4 M
[6] = Chronic toxicity up to 13 weeks, rat; assay type: in vivo, Wistar rat
[7] = test system: β-catenin; assay: β-catenin stabilization in rat hippocampal neurons; assay type: cell-based
Experimental: This study was performed in rat hippocampal primary cell cultures using the methods described by Garrido J L et al. (FASEB J 2002; 16:1982).

[8] = in vivo; details: rat
[9] = pKa and free-base fraction of AF267B; details: pH=7.35 of CSF, calculated from pKa
[10] = target: T1, M2 mAChR (Homo sapiens, UniProt P08172); assay: Intracellular Ca increase in modified cell cultures, M2; assay type: cell-based; details: 10^−9–10^−3M
T1 construct: expressed in transfected cells; host or cells: 'modified cell cultures' giving a Ca increase; modification not described
T1 sequence (P08172 whole entry): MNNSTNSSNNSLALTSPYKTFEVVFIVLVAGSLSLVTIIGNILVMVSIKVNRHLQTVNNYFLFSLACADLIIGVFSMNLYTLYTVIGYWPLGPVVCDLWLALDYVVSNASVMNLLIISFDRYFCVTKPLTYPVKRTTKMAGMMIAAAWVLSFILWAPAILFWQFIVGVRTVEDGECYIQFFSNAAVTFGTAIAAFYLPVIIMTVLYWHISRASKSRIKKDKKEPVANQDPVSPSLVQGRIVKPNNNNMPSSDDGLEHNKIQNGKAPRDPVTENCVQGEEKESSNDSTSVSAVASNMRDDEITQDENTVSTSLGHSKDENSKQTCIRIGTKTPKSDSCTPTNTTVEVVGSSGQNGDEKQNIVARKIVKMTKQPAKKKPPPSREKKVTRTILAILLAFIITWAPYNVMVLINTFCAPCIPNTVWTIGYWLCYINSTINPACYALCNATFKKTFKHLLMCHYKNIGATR

[11] = target: T2, M3 mAChR (Homo sapiens, UniProt P20309); assay: Arachidonic acid (AA) release, M3; assay type: cell-based
T2 construct: expressed in transfected cells
T2 sequence (P20309 whole entry): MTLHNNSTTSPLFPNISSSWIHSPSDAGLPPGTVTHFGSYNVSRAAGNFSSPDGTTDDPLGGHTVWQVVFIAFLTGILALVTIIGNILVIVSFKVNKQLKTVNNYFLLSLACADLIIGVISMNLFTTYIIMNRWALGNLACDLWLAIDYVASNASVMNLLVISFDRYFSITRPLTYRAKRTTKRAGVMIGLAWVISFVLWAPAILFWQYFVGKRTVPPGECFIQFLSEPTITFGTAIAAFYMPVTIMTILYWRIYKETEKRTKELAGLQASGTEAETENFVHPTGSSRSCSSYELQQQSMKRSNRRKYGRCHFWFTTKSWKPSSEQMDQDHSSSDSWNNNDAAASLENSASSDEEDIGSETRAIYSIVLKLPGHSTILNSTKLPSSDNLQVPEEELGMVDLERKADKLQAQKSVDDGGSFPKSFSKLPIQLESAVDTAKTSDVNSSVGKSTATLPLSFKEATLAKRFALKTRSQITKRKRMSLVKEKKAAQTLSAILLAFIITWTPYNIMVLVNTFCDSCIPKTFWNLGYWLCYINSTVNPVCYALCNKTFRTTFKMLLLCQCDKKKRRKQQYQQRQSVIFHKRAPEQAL

[12] = target: T3, human M1 (Homo sapiens, UniProt P11229); assay: Binding study, M1 (human); details: 10 μm
T3 sequence (P11229 1-460): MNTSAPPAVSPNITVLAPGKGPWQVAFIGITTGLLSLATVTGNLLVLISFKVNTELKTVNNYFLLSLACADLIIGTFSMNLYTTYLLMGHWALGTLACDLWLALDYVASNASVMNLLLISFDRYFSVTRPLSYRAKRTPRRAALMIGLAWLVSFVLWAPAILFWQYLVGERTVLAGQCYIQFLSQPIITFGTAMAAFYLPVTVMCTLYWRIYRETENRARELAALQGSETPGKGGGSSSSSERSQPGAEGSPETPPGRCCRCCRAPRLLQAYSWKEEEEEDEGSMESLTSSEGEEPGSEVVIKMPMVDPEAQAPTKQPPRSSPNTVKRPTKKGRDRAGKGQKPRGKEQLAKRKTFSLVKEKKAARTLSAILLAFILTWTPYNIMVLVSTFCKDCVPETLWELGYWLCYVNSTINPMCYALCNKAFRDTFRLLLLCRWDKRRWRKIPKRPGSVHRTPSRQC

[13] = target: M2 (human) (Homo sapiens, UniProt P08172); assay: Binding study, M2 (human); details: 10 μm
Sequence of M2 (human) (P08172 whole entry): as the sequence (P08172 whole entry) above

[14] = Cardiac electrophysiology and haemodynamics in awake dogs; assay type: in vivo, Beagle dogs; details: 5 mg/kg orally
Experimental: • 1. Astemizole (human ether-a-go-go related gene (HERG) Channel) Binding Assay. […] Isolated Guinea Pig Right Atrium (atrial fibrillation). […] Effects of AF292 (dose 5 mg/kg orally) on cardiac electrophysiological, cardio-haemodynamic in instrumented, awake dogs. Healthy trained and chronically instrumented female Beagle dogs of varying age and ranging in body weight from 9.4 to 12 kg, were used for recording of the cardiovascular parameters: heart rate, diastolic and systolic blood pressure, pressure rate product, LV dp/dt max, LV dp/dt max/pd, LV dp/dt min, cardiac output, stroke volume, systemic vascular resistance and the ECG parameters (PQ-, QRS-, QT-, QTcBazett-(QTcB), QTcFridericia-(QTcF) and QTcVan de Water-(QTcVdW) interval duration and QT-dispersion. During the last 18 hours prior to the experiments, the dogs had no access to food. Water was available ad libitum. At the beginning of each experiment, control values of the various parameters were recorded for at least 30 min. Thereafter, 5 mg/kg of AF292 (n=4) or the corresponding volume of the solvent (n=4) was administered orally by gavage. The various haemodynamic parameters were recorded continuously for 4 hours thereafter.

[15] = target: CYP1A2 (Homo sapiens, UniProt P05177); assay: Cytochrome P450 inhibition, CYP1A2; assay type: in vitro ADME; details: up to 10 μM
Sequence of CYP1A2 (P05177 whole entry): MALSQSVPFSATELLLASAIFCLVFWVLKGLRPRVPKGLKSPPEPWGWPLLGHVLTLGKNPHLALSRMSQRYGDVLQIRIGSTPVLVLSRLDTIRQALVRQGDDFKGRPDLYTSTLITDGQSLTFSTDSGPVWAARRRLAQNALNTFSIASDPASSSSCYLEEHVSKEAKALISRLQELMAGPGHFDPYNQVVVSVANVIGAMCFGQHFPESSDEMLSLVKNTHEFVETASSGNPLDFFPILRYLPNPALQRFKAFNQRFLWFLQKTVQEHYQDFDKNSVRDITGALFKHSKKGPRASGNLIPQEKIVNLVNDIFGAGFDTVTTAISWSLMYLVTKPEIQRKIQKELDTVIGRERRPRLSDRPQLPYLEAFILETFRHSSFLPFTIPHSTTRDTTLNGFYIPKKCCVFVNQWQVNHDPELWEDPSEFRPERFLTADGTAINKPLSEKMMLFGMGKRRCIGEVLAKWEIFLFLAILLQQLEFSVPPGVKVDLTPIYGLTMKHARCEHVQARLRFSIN
Experimental: (§1) Cytochrome P450 activity can be an indicator for potential drug-drug interactions. AF292 was evaluated in a microtiter plate assay for P450 inhibition.

[16] = target: CYP2C19 (Homo sapiens, UniProt P33261); assay: Cytochrome P450 inhibition, CYP2C19; assay type: in vitro ADME; details: up to 10 μM
Sequence of CYP2C19 (P33261 whole entry): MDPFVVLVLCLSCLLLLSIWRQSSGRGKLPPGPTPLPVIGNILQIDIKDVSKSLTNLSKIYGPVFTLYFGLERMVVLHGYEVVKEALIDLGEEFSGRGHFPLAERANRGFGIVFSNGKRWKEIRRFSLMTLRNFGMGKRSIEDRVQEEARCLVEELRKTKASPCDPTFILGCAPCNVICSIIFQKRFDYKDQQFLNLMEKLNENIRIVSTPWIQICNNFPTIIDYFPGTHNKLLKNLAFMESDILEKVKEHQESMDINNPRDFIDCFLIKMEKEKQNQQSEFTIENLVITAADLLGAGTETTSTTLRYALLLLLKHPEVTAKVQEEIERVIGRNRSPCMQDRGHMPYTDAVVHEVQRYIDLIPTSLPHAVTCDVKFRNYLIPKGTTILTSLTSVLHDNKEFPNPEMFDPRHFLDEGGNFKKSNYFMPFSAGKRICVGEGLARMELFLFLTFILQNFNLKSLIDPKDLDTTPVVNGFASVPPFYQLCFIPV
Experimental: as §1

[17] = target: CPY2D6 (Homo sapiens, UniProt P10635); assay: Cytochrome P450 inhibition, CYP2D6; assay type: in vitro ADME; details: up to 10 μM
Sequence of CPY2D6 (P10635 whole entry): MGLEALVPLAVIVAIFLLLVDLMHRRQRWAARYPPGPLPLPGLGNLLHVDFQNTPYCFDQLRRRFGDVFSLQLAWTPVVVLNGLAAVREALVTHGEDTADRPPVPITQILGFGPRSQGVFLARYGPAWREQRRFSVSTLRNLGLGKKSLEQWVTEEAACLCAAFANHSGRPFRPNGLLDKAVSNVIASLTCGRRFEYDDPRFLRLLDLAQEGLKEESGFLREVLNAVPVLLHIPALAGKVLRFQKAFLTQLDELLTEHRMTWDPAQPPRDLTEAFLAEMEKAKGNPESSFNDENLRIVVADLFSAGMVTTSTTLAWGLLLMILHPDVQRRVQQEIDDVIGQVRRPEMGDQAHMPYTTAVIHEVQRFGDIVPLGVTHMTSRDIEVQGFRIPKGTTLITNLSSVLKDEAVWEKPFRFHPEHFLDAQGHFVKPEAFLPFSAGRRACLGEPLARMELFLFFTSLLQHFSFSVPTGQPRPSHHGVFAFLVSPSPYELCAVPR
Experimental: as §1

## CC1=NCC2(CCN(C)CC2)S1 [AF150(S), 2,8-Dimethyl-1-thia-3,8-diaza-spiro[4.5]dec-2-ene]
[1]; iv
  brain penetration time: 1 min
[1]; mouse, in vivo, 100 μmole/kg
  MRT: 50 min
[1]; mouse, in vivo, iv, T1/2, first phase
  half-life: 21 min
[1]; mouse, in vivo, iv, T1/2, second phase
  half-life: 53 min

## CC[C@@H]1SC2(CCN(C)CC2)NC1=O [AF267B, (S)-2-ethyl-8-methyl-1-thia-4,8-diaza-spiro[4.5]decan-3-one]
[2]
  Active concentration range, decrease of Aβ: active in the μM range
  Potency in decreasing Aβ levels relative to AF150(S): at least 5 fold
  Reduction of release of Aβ-like fragments (3–4 Kda): approximately 50%
  γ secretase activity reduction: 50%
[2]; 1 mM
  p3 fragment: complete loss
[2]; with CDX (5 mM), to undetectable Aβ levels
  Decrease of Aβ together with CDX: synergistic effect
[3]
  Reduction of intensity of the immunoreactivity: approximately 50%
  Reduction of number of neurons expressing Aβ immunoreactivity: 25–30%
[4]; Rattus norvegicus, Astrocyte, at 0.1 nM, read-out: Inhibition of ApoE production
  inhibition at 0.0001 µM: 60 to 80%
[4]; up to 96 hrs
  ApoE production: inhibits the production of ApoE
[5]
  % inhibition: 52.5%
[6]
  Dose at which effects are seen: > 40 mg/kg
[7]; 1 μM
  soluble β-catenin level: 100%
[7]; 1 μM, Aβ1–40 (5 μM)
  nuclear β-catenin vs control: 140%
[7]; 10 μM
  soluble β-catenin level: 300%
[7]; 100 μM
  soluble β-catenin level: 350%
[7]; 100 μM, Aβ1–40 (5 μM)
  Aβ-induced degradation of soluble β-catenin: this degradation was prevented
[8]; female, iv, 1 mg/kg
  Kp: 1.32
[8]; female, po, 2 mg/kg
  Kp: 1.25
[8]; male, iv, 1 mg/kg
  Kp: 1.79
[8]; male, po, 2 mg/kg
  Kp: 2.43
[9]
  % of compound in free base form: 26.2%

## CC[C@@H]1SC2(CCNCC2)NC1=O [AF292, (S)-2-Ethyl-1-thia-4,8-diaza-spiro[4.5]decan-3-one]
[10]
  Agonist activity at M2: inactive as an agonist; also recorded: M2 mAChR - no effects as agonist
[11]
  AA release, M3 mAChR, agonist activity: inactive as an agonist; also recorded: PI., AA: M3 mAChR: Not active as agonist
[12]
  Binding, %: 55%
[13]
  Binding, %: 61%
[14]
  Hemodynamic and ECG parameters: no statistically significant and relevant effect
[15]
  Inhibition of CYP1A2: did not induce significant inhibition
[16]
  Inhibition of CYP2C19: did not induce significant inhibition
[17]
  Inhibition of CPY2D6: did not induce significant inhibition
